Literature values in US20030143648A1, “Enzyme activity profiles” (priority 2001, published 2003).

Tested on: FAAH
Conditions: pH 8.0

CCCCCCCC/C=C\CCCCCCCC(N)=O [oleamide]
kcat of FAAH for oleamide: approximately 2 s −^1
